Values quoted from earlier work, collected in patent publication US20040116329A1, “Inhibition of proteasomes to prevent restenosis” (priority 2004, published 2004).
Read-outs that look alike come from different tables or passages of the source.

Assays:
[1] = given orally
apoptosis [2] = conditions: through stabilization of proteins critical for cell cycle progression and control of apoptosis
SMC [3] = conditions: in vitro
apoptosis [4] = conditions: biologically relevant concentrations
neointimal accumulation = conditions: in vivo, rat carotid artery injury model
SMC [5] = conditions: in vitro; remark: listed apart in the source

Question: Which “activity in tumor treatment in combination” value (various tumors; in combination with standard chemotherapeutic agents or radiation) does the source give for CC(C)C[C@H](NC(=O)[C@H](Cc1ccccc1)NC(=O)c1cnccn1)B(O)O [LDP-341] here?
Answer: The value was “appears very active”.

Question: What about the “volume of various tumors” value (various tumors; in vivo) of the same molecule?
Answer: Its value is “effective in reducing the volume of various tumors”.

Question: And the major side effects [1]?
Answer: The major side effects was “gastrointestinal in nature”.

Question: What about the induction of apoptosis (apoptosis [2]) of the same molecule?
Answer: Its induction of apoptosis is “induce apoptosis”.

Question: Which SMC proliferation (SMC [3]) does the source give for CC(=O)O[C@H]1C(=O)[C@@]2(C)[C@H]([C@H](OC(=O)c3ccccc3)[C@]3(O)C[C@H](OC(=O)[C@H](O)[C@@H](NC(=O)c4ccccc4)c4ccccc4)C(C)=C1C3(C)C)[C@]1(OC(C)=O)CO[C@@H]1C[C@@H]2O [paclitaxel] here?
Answer: Its SMC proliferation is “inhibited”.

Question: And the induction of apoptosis (apoptosis [4])?
Answer: Its induction of apoptosis is “does not appear to induce apoptosis”.

Question: And the neointimal accumulation (neointimal accumulation)?
Answer: The neointimal accumulation was “inhibited neointimal accumulation”.

Question: What about the “platelet-derived growth factor-stimulated SMC migration” value (SMC [5]) of the same molecule?
Answer: The value was “inhibited”.
